Test results taken from BindingDB's records for doi:10.1021/jacs.1c08060 (The University of Arizona, 2021).

Legend:
Procathepsin L = Procathepsin L (Homo sapiens, UniProt P07711); assay: FRET-based enzymatic assay
[1] = target: Replicase polyprotein 1ab (Severe acute respiratory syndrome coronavirus 2, UniProt P0DTD1); assay: FRET-based enzymatic assay

Chain of Procathepsin L (P07711 whole entry): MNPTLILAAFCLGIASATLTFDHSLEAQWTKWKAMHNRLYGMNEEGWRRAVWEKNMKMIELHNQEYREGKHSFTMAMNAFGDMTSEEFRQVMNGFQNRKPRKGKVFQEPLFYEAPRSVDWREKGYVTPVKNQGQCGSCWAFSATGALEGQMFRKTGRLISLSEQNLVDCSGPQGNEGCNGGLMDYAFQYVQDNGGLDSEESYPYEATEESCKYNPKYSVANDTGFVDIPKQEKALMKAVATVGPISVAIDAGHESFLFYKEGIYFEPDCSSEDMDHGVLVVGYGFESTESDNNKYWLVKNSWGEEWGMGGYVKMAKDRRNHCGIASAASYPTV

| SMILES | IC50 (Procathepsin L) [nM] | IC50 [1] [nM] |
| --- | --- | --- |
| COc1cccc2[nH]c(C(=O)N[C@@H](CC(C)C)C(=O)N[C@@H](C[C@@H]3CCNC3=O)C(=O)CO)cc12 [WO2005113580-Ex-02] | 146 | – |
| CCCCC1CCC(OC(=O)N[C@@H](CC(C)C)C(=O)N[C@H](C=O)C[C@@H]2CCNC2=O)CC1 (stereo not given in full) [Advanced SARS-CoV-2 Inhibitor 6e] | – | 10 |
| O=C(NC1CCCC1)C(c1cccnc1)N(C(=O)CCl)c1ccc(-c2ccccc2)cc1 (stereo not given) [Jun9-55-1] | – | 300 |
| C[C@H](NC(=O)C(c1cccnc1)N(C(=O)CF)c1ccc(-c2ccccc2)cc1)c1ccccc1 (stereo not given in full) [Jun9-61-4] | – | > 20000 |
| CC(OC(C)(C)C)[C@H](NC(=O)OCc1ccccc1)C(=O)N[C@@H](CC1CCCCC1)C(=O)N[C@H](C=O)C[C@@H]1CCNC1=O (stereo not given in full) [jm5b01461, Compound 45] | 1.2 | – |
| C[C@H](NC(=O)C(c1cccnc1)N(C(=O)C(C)(Cl)Cl)c1ccc(-c2ccccc2)cc1)c1ccccc1 (stereo not given in full) [Jun9-76-4] | – | > 20000 |
| C[C@H](NC(=O)C(c1cccnc1)N(C(=O)/C=C/CN(C)C)c1ccc(-c2ccccc2)cc1)c1ccccc1 (stereo not given in full) [Jun10-31-4] | – | > 20000 |
| O=C(NC1CC1)C(c1cccnc1)N(C(=O)CCl)c1ccc(-c2ccccc2)cc1 (stereo not given) [Jun9-57-2] | – | 220 |
| CCOC(=O)/C=C/C(=O)N(c1ccc(-c2ccccc2)cc1)C(C(=O)N[C@@H](C)c1ccccc1)c1cccnc1 (stereo not given in full) [Jun9-72-3] | – | > 20000 |
| C[C@H](Cl)C(=O)N(c1ccc(-c2ccccc2)cc1)C(C(=O)N[C@@H](C)c1ccccc1)c1cccnc1 (stereo not given in full) [Jun9-77-1] | – | > 20000 |
| C[C@H](NC(=O)[C@@H](c1cnccn1)N(C(=O)CCl)c1ccc(-c2ccccc2)cc1)c1ccccc1 [Jun9-57-3R] | – | 50 |
| C=CC(=O)N(c1ccc(-c2ccccc2)cc1)C(C(=O)N[C@@H](C)c1ccccc1)c1cccnc1 (stereo not given in full) [Jun9-51-3] | – | > 20000 |
| CC(C)C[C@H](NC(=O)OCc1ccccc1)C(=O)N[C@@H](CC1CCNC1=O)C(O)S(=O)(=O)O (stereo not given in full) [GC376] | 0.99 | – |
| O=C(NC1CCCCC1)C(c1cccnc1)N(C(=O)CCl)c1ccc(-c2ccccc2)cc1 (stereo not given) [Jun9-55-2] | – | 330 |
| C[C@H](NC(=O)C(c1cnccn1)N(C(=O)CCl)c1ccc(-c2ccccc2)cc1)c1ccccc1 (stereo not given in full) [Jun9-59-1] | – | 120 |
| C=CC(=O)N(c1ccc(-c2ccccc2)cc1)C(C(=O)NCc1ccccc1)c1cccnc1 (stereo not given) [Jun10-15-2] | – | > 20000 |
| C[C@H](NC(=O)C(c1cccnc1)N(C(=O)C(Cl)(Cl)Cl)c1ccc(-c2ccccc2)cc1)c1ccccc1 (stereo not given in full) [Jun9-72-4] | – | > 20000 |
| C[C@H](NC(=O)C(c1cccnc1)N(C(=O)C(F)(F)Cl)c1ccc(-c2ccccc2)cc1)c1ccccc1 (stereo not given in full) [Jun9-77-2] | – | > 20000 |
| C[C@H](NC(=O)C(c1cccnc1)N(C(=O)CN=[N+]=[N-])c1ccc(-c2ccccc2)cc1)c1ccccc1 (stereo not given in full) [Jun9-61-1] | – | > 20000 |
| C[C@H](NC(=O)[C@@H](c1cccnc1)N(C(=O)C(Br)Br)c1ccc(-c2ccccc2)cc1)c1ccc(Br)cc1 [Jun9-89-2R] | – | 80 |
